# Structures can show the parent of a compound that is named as a salt.
# Target: p97 (Homo sapiens, UniProt P55072)
# Experiment: P97 ATPase biochemical assay (ADP Glo)
# Conditions: 20 nM p97, 20 uM ATP, 37 degC 15 min
# Description: The ATPase assay is performed according the following protocol: Purified enzyme (20 nM p97), substrate (20 μM ATP) and a dose titration of compounds are mixed in buffer (50 mM TRIS pH 7.5, 20 mM MgCl2, 0.02% TX-100, 1 mM DTT, 0.2% (v/v) glycerol) and incubated at 37° C. for 15 minutes. The reaction is terminated and the level of product generated is measured using the ADP Glo Assay Kit (Promega, Madison Wis.). Plotting product generated versus compound concentration and using a four-parameter fit model generates an IC50 value for each compounds.
# The p97 assay is an initial screening assay used to determine inhibitory activity of the monocyclic pyrimidine compounds of the invention against the p97 complex. As discussed above, inhibition of activity of the p97 proteosome complex can enable apoptosis and cause elimination of neoplastic cells (cancer cells). The method follows that of Christianson in Nat. Cell Biol., (2011) 14:93.
# Assay Buffer is a mixture of 50 mM TRIS pH 7.5, 20 mM MgCl2, 0.02% TX-100, 1 mM DTT and 0.2% (v/v) Glycerol. The well plate is Platetype: Corning 3674, 384w plate. The identification kit is an ADP glo kit (Promega): stop buffer, detection reagent.
# Serial dilute compound in DMSO in a 1:3.33-fold 10 point serial dilution.
# 0.5 μL compound serial diluted in DMSO (Final Conc. 10%)
# 2 μL ATP (Final Conc.=20 uM, diluted in assay buffer)
# 2.5 μL p97 (Final Conc.=20 nM, diluted in assay buffer)
# Incubate at 37 degC for 15 min.
# Add 5 μL of stop buffer, incubate at RT for 40 min.
# Add 10 μL of detection reagent, incubate at RT for 30 min.
# Read luminescence on Envision plate reader. • Upon obtaining the data from the luminescence reading, the data may be analyzed as follows:
# Normalize luminescence data using no enzyme (full inhibition) and no compound (no inhibition) controls. Plot normalized luminescence data against log-transformed concentration values and fit to a sigmoidal curve to determine IC50 values (done in Collaborative Drug Discovery software).
# The results are reported on the following Table for Examples A-EE and the E1-E4 compounds as 50 percent Inhibitory concentration at candidate doses of less than 30 nM, less than 100 nM, less than 300 nM and less than 1000 nM for the p97 inhibition assay.
# Sequence of p97 (P55072 whole entry): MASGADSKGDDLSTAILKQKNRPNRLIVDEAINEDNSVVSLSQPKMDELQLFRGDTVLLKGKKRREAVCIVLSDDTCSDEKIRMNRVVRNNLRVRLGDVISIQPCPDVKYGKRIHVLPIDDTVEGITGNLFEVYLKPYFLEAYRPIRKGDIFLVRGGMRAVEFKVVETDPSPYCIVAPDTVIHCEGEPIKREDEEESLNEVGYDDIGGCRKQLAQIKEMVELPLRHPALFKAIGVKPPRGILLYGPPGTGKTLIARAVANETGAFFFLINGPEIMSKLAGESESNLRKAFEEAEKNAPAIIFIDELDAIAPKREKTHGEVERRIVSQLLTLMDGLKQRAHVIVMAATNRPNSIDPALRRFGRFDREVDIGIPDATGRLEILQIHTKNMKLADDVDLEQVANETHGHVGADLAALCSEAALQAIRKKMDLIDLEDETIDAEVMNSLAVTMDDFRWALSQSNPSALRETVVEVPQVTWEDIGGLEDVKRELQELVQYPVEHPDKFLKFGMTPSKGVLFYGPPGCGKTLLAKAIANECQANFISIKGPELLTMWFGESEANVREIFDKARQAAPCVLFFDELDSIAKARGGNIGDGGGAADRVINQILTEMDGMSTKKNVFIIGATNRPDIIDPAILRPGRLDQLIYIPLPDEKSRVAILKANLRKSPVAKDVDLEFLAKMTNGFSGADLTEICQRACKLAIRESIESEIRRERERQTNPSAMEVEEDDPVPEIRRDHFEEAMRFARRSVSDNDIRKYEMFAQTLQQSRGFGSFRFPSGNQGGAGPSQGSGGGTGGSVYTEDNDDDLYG
row,SMILES,IC50 [nM]
1,"Cc1cc2c(C(N)=O)cccc2n1-c1ncc(N)c(NCc2ccccc2)n1 [Example 17, 1-[5-amino-4-(benzylamino)pyrimidin-2-yl]-2-methyl-1H-indole-4-carboxamide]",< 1000
2,"Cc1cc2c(C(N)=O)cccc2n1-c1ncc(CN(C)C)c(NCc2ccccc2)n1 [Example 21, 1-[4-(benzylamino)-5-[(dimethylamino)methyl]pyrimidin-2-yl]-2-methyl-1H-indole-4-carboxamide]",< 1000
3,"Cc1cc2c(C(N)=O)cccc2n1-c1ncc(CN)c(NCc2ccccc2)n1 [Example 22, 1-[5-(aminomethyl)-4-(benzylamino)pyrimidin-2-yl]-2-methyl-1H-indole-4-carboxamide]",< 300
4,"CNCc1cnc(-n2c(C)cc3c(C(N)=O)cccc32)nc1NCc1ccccc1 [Example 23, 1-[4-(benzylamino)-5-[(methylaminoc)methyl]pyrimidin-2-yl]-2-methyl-1H-indole-4-carboxamide]",< 1000
5,"Cc1cc2c(C(N)=O)cccc2n1-c1ncc(OCCN)c(NCc2ccccc2)n1 [Example 25, 1-[5-(2-aminoethoxy)-4-(benzylamino)pyrimidin-2-yl]-2-methyl-1H-indole-4-carboxamide]",< 1000
6,"Cc1cnc(-n2c(CN)cc3c(C(N)=O)cccc32)nc1NCc1ccccc1 [Example 31, 2-(aminomethyl)-1-[4-(benzylamino)-5-methylpyrimidin-2-yl]-1H-indole-4-carboxamide Hydrochloride]",< 1000
7,"CCc1cnc(-n2c(CN)cc3c(C(N)=O)cccc32)nc1NCc1ccccc1 [Example 32, 2-(aminomethyl)-1-[4-(benzylamino)-5-ethylpyrimidin-2-yl]-1H-indole-4-carboxamide]",< 300
8,"Cc1cc2c(CN)cccc2n1-c1ncc(C(C)C)c(NCc2ccccc2)n1 [Example 39, 2-[4-(aminomethyl)-2-methyl-1H-indol-1-yl]-N-benzyl-5-(propan-2-yl)pyrimidin-4-amine]",< 1000
